The text below walks through data of patent publication US20060058320A1, “[1,2,4] Triazolo[1,5-c]pyrimidine derivatives” (KYOWA HAKKO KOGYO CO., LTD., priority 2002, published 2006).

For data set [1], the target named is T1, adenosine A2A receptor (Rattus norvegicus, UniProt P30543).
T1 construct: from tissue; host or cells: rat corpus striatum membrane preparation
Put plainly: Adenosine A2A receptor binding test (3H-CGS 21680 binding). The following applies: for inhibition at 0.1 µM: read-out: A2A Receptor inhibition rate (%) at 10^−7 mol/L. How it is done: The test was carried out according to the method of Bruns et al. [Molecular Pharmacology, vol. 29, p.
Rat corpus striatum was suspended in an ice-cold 50 mmol/L tris(hydroxymethyl)aminomethane hydrochloride (referred to as “Tris HCl” hereinafter) buffer (pH 7.7) using a Polytron homogenizer (produced by Kinematica Co.). The suspension was centrifuged (50,000×g, 10 minutes), and the resulting precipitate was again suspended in the same amount of a 50 mmol/L Tris HCl buffer, followed by centrifugation under the same conditions. The resulting finalprecipitate was again suspended in a 50 mmol/L-Tris HCl buffer [containing 10 mmol/L of magnesium chloride and 0.02 unit/mg tissue of adenosine deaminase (produced by Sigma Co.)] so that the tissue concentration was 5 mg (wet weight)/mL.
The radioactivity on the filter was determined with a liquid scintillation counter (produced by Packard Instrument Co.).
In the equation, X represents Amount of binding in the presence of a medicament, Y represents Amount of nonspecific binding, and Z represents Amount of total binding.

The test system of data set [2] is male ddY mice. Kind of data set: Forced swimming method (measurement of immobility time). The data set is classed as in vivo. As to conditions: orally administered, 10 mg/kg, one hour before the test; versus solvent group (Steel-test). The method, then:
Ten male ddY mice (21 to 26 g in body weight, Japan SLC) per group were used as test animals. During the preliminary feeding period, the animals were bred to be allowed to freely have feed (CRF-1; Oriental Yeast Co., Ltd, Tokyo) and water (tap water) in an animal room at a room temperature for 23±1° C. and a humidity of 55±5%.
Animals showing abnormal reactions in terms of spontaneous activity, myotonia, eyesight and the like were previously excluded. Each test compound was suspended in a 0.3% Tween 80 solution and orally administered one hour before the test. In the negative control group, 10 mL/kg of a 0.3% Tween 80 solution alone was orally administered. The immobility time was measured according to the Porsolt method [Arch. Int. Pharmacodyn., vol. 229, pp. 327-336 (1977)]. Namely, a cylindrical transparent acrylic water tank (10 cm in diameter and 25 cm in height) was filled with water at a temperature between 23±1° C. to a height of 9 cm, and the mice were forced to swim for 6 minutes. When the mice are put into water, they immediately start to swim trying to escape from the tank, but the motion gradually decreases 1 to 2 minutes thereafter. […] In order to reduce the effects of daily rhythm, the test was carried out using 5 of the 10 animals per group in the morning, and the remaining 5 animals in the afternoon. The immobility time was measured by observing 2 animals at the same time without telling the observers distinctions about the control group administered with the solvent alone and doses of the test compounds. Statistical analysis of the results was carried out by a multiple comparison Steel-test between the solvent-administered group and the test compound-administered group.

In data set [3] the test system is CGS 21680-induced catalepsy. Put plainly: Activity on CGS 21680-induced catalepsy. The data set is classed as in vivo, mice. The following applies: for Total score: total catalepsy score of 10 mice (maximum 50 points; 40 points or less = positive), one hour after administration; for inhibition in vivo at 10 mg/kg: Mus musculus, po, read-out: Remission ratio (%). In outline:
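Male ddY mice, 5 weeks old, ten per group, were dosed orally with compound at 10 mg/kg in 0.3% Tween 80 water, 30 min before CGS 21680 (10 μg/20 μL) was injected into the cerebral ventricle. Catalepsy was scored 1 h after compound dosing by placing forelimbs or hindlimbs on a 4.5 cm stand.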

The subject of data set [4] is male SD rats. Kind of data set: Learned helplessness (LH) model. The format is in vivo. How it is done:
As test animals, 10 to 15 male SD rats (220 to 320 g in body weight, 7 week age, Charles River Japan, Inc., Atsugi) per group were used. During the preliminary feeding period, the animals were bred to be allowed to freely have feed (CRF-1; Oriental Yeast Co., Ltd, Tokyo) and water (tap water) in an animal room at a room temperature of 22 to 24° C. and a humidity of 50 to 60%. Each test compound was orally administered in a dose of 2 mg/kg 1 hour before RF1 (refer to the contents described below) on the second day of the test.
A shuttle box apparatus (TK-401S; produced by UNICOM, Chiba) was used as a learning experimental apparatus. On the first day, the shuttle box was divided into two rooms by setting a partition at its center, and one rat was put in each of the rooms. […] Although each rat was put in the shuttle box for 50 minutes, the charging time of inescapable shock (IES) was set to 25 minutes by computer control using a random duration time (10 to 90 seconds) and random on-off and off-on (10 to 90 seconds).
On the second day, a shuttle box test was carried out by the method of Maier [J. Comp. Physiol. Psychol., vol. 85, pp. 581-592 (1973)] and the method of Geoffroy and Christensen [Drug Dev. Res., vol. 29, pp. 48-55 (1993)] which were slightly modified. The partition at the center of the shuttle box was removed, and the box was divided into two rooms by a hurdle of 2 cm in height instead of the partition. In the shuttle box test, FRI (an electric shock of 0.6 mA was applied to the rat for 5 seconds unless the rat moved to the other room within 5 seconds after the start of buzzer sounds, and when the rat moved to the other room within 5 seconds after the start of buzzer sounds, the floor shock could be avoided, this operation being carried as one trial and repeated 15 times with an interval of 10 seconds between trials.) was carried out, continuously followed by FR2 (an electric shock of 0.6 mA was applied to the rat for 10 seconds, and then an electric shock of 0.6 mA was applied at intervals of 0.5 second for 10 seconds, this operation being carried out as one trial and repeated 15 times with an interval of 15 seconds between trials). Escape reaction was determined by the escape response calculated by the equation below on the assumption that cases showing two escape latency times of less than 10 seconds in FR2 were regarded as successful escape. Escape response (%)=(Number of trials of successful escape/15)×100
Furthermore, migration (intertrial response %) in the box other than the escape reaction observed during a period between trials (resting time) was used as an index of psychomotor stimulant action, the intertrial response being calculated by the following equation. […]

Data set [5] concerns common marmoset treated with 1-methyl-4-phenyl-1,2,3,6-tetrahydropyridine (MPTP). Kind of data set: Parkinson's disease model, MPTP-treated common marmoset. The following applies: symptom score and spontaneous locomotor activity versus solvent-administered group. The format is in vivo. How it is done: Parkinson's disease is a disease based on the degeneration and cell death of the nigrostriatal dopaminergic neurons. […] These MPTP-treated primates are known as a model of Parkinson's disease [Proceedings of the National Academy of Science USA, vol. 80, p. 4546 (1983)]. […] 57, p. 37 (1985)].
The test was carried out using 4 female and male common marmosets of 2 to 3 year age (300 to 375 g in body weight, Japan CLEA) per group. MPTP (produced by RBI Co.) was dissolved in physiological saline for injection (produced by Otsuka Pharmaceutical Co., Ltd.), and hypodermically administered to the common marmosets once a day for 5 days in a dose of 2.0 mg/kg. Six weeks or more after the administration, animals showing chronic symptoms of Parkinson's disease were used in the test. Each test compound was used by suspending it in an aqueous solution containing 0.3% Tween 80 and 10% sucrose. Also, a solution containing no test compound was used as a control. One hour before the administration of the test compound, the animals to be tested were put into an observation cage (provided with a spontaneous locomotor activity measuring apparatus) to adapt them to the environment. The symptoms of Parkinson's disease were observed from a one-way see through window at intervals of 30 minutes for 8 hours to score the motor disability. The spontaneous locomotor activity was measured at intervals of 30 minutes for 12 hours by a computer-controlled automatic measuring apparatus. The symptoms of Parkinson's disease were decided on the basis of the criteria of each observation item shown below, and the total of the points was used as the score of each animal.
The effect was decided by comparing average scores of the symptoms of Parkinson's disease in 4 animals per group between the test compound-administered group and the solvent-administered group (significance test: Sign-Wilcoxon test). The spontaneous locomotor activity was also decided by comparison between the test compound-administered group and the solvent-administered group.

Where [6] appears, read: test compound 10^−7 mol/L, 3H-CGS 21680 binding, rat corpus striatum.
The mark [7] stands for this setting: from total score of test group and control group, 10 mg/kg orally.

Where two headings read alike, the source gives them in different places.

T1 sequence (P30543 whole entry): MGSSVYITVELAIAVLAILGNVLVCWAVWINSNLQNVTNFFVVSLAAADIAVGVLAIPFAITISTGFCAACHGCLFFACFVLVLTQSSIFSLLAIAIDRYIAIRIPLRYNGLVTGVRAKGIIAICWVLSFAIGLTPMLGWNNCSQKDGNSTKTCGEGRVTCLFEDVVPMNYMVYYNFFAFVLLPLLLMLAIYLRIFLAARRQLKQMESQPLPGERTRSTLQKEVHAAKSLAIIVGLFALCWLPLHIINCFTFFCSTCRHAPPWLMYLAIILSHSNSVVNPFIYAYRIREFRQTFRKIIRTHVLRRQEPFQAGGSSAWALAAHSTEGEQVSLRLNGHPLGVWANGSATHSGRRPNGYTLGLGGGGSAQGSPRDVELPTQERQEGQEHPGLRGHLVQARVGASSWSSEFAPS

As to “5-Amino-2-(2-furyl)[1,2,4]triazolo[1,5-c]pyrimidine-7-carboxylic acid (1,2,3,4-tetrahydroisoquinolyl)amide [Compound 94]”, the “A2A Receptor inhibition rate (%) at 10^−7 mol/L” value in data set [1] (setting [6]) stood at 95%. Moreover, the immobility time result in data set [2] is on record as “significant effect of decreasing the immobility time”. Besides, the “Number of animals showing remission” value in data set [3] (cases with catalepsy score of 4 points or less in 10 cases, 10 mg/kg orally) is given as 10. In data set [3] (setting [7]), the “Remission ratio (%)” value is 90%. This compound showed a Total score in data set [3] (10 mg/kg orally) of 5.

For the compound `CC(C)NC(=O)c1cc2nc(-c3ccco3)nn2c(N)n1` [Compound 89, 5-Amino-2-(2-furyl) [1,2,4]triazolo[1,5-c]pyrimidine-7-carboxylic acid isopropylamide], in data set [1] (setting [6]), the inhibition at 0.1 µM stood at 89%. Moreover, the immobility time entry in data set [2] is on record as “significant effect of decreasing the immobility time”. Also, the inhibition in vivo at 10 mg/kg in data set [3] (setting [7]) was 84%. The Total score in data set [3] (10 mg/kg orally) was 8.

For `Nc1nc(C(=O)NCc2cccnc2)cc2nc(-c3ccco3)nn12` [Compound 83, 5-Amino-2-(2-furyl) [1,2,4]triazolo[1,5-c]pyrimidine-7-carboxylic acid (3-pyridylmethyl)amide], the escape response entry in data set [4] (IES-loaded rats, 2 mg/kg orally 1 hour before FR1) was “significantly recover a reduced escape response”. The “intertrial responses (index of psychomotor stimulant action)” value in data set [4] (versus electric shock loaded control group, 2 mg/kg orally) is reported as “no difference”. Moreover, in data set [2], the immobility time entry was “significant effect of decreasing the immobility time”. Also, the inhibition in vivo at 10 mg/kg in data set [3] (setting [7]) was determined as 96%. The same compound yielded a Total score in data set [3] (10 mg/kg orally) of 2.

The melting point is the temperature of the solid-liquid transition. With `Nc1nc(C(=O)c2ccccc2)cc2nc(-c3ccco3)nn12` [Compound 39, 5-Amino-7-benzoyl 2-(2-furyl)[1,2,4]triazolo[1,5-c]-pyrimidine], the melting point fell in the range of 229.2 to 229.7 °C. Besides, in data set [1] (setting [6]), the inhibition at 0.1 µM was 66%.

In the case of `CCCCc1cc2nc(-c3ccco3)nn2c(N)n1` [Compound 64, 5-Amino-7-butyl-2-(2-furyl)[1,2,4]triazolo[1,5-c]pyrimidine], the melting point was 155 to 155.3 °C. In addition, the inhibition at 0.1 µM in data set [1] (setting [6]) came to 81%.

Consider `Nc1nc(-c2ccc(CNCCc3ccccn3)cc2)cc2nc(-c3ccco3)nn12` [Compound 11, 5-Amino-2-(2-furyl)-7-{4-[2-(2-pyridyl)ethylaminomethyl]-phenyl}[1,2,4]triazolo[1,5-c]pyrimidine], for which the melting point is 159.8 to 160.5 °C. Moreover, the inhibition at 0.1 µM in data set [1] (setting [6]) was 53%.

With `Nc1nc(-c2cccs2)cc2nc(-c3ccco3)nn12` [Compound 51, 5-Amino-2-(2-furyl)-7-(2-thienyl)[1,2,4]triazolo[1,5-c]-pyrimidine], the melting point lay within 232.2 to 232.3 °C. Also, in data set [1], the inhibition at 0.1 µM was 68%.

`CN(CCc1ccccn1)C(=O)c1cc2nc(-c3ccco3)nn2c(N)n1` [Compound 85, 5-Amino-2-(2-furyl)[1,2,4]triazolo[1,5-c]pyrimidine-7-carboxylic acid {N-[2-(2-pyridyl)ethyl]-N-methyl}amide]: the inhibition at 0.1 µM in data set [1] (setting [6]) turned out to be 70%. The “effect in the common marmoset MPTP-treated Parkinson's disease model” value in data set [5] is on record as “effective”. Further, the inhibition in vivo at 10 mg/kg in data set [3] (setting [7]) is 94%. Further, the Total score in data set [3] (10 mg/kg orally) was 3.

With `CC(C)(O)CCN1CC=C(c2cc3nc(-c4ccco4)nn3c(N)n2)CC1` [Compound 76, 5-Amino-7-[1-(3-methyl-3-hydroxybutyl)-1,2,3,6-tetrahydro-pyridin-4-yl]-2-(2-furyl)[1,2,4]triazolo[1,5-c]pyrimidine], the inhibition at 0.1 µM in data set [1] was determined as 72%. For the same compound, the “effect in the common marmoset MPTP-treated Parkinson's disease model” value in data set [5] was “effective”. For the same compound, in data set [3], the inhibition in vivo at 10 mg/kg was found to be 80%. Besides, in data set [3] (10 mg/kg orally), the Total score worked out at 5.

`Nc1nc(-c2ccccc2)cc2nc(-c3ccco3)nn12` [Compound 1, 5-Amino-2-(2-furyl)-7-phenyl[1,2,4]triazolo[1,5-c]pyrimidine] returned a melting point of 218.5 to 219 °C. Moreover, the inhibition at 0.1 µM in data set [1] (setting [6]) is 65%.
